What was measured:
[1] = tested on: Caco-2:HT29-MTX E12 coculture tubules; assay: Live cell imaging of cellular uptake and intracellular localization in coculture tubules; assay type: cell-based, human
Experimental: Spinning disc (SD) confocal microscopy was performed on a Nikon Ti2 inverted microscope equipped with a Yokogawa CSU-W1 module and a Photometrics Prime 95B sCMOS camera was used for all experiments (excl. Image-based TAT transport). The set-up includes four excitation lasers 405/488/561/638 nm with 442/42, 520/28 BrightLine HC filters and 600/50 ET, 700/75 ET bandpass filters. For this work, a set of CFI Plan Apochromat Lambda objectives were used: ×4/0.2, 20x/0.75, 60x/1.4 and 100x/1.45. For image-based transport experiments, epi-fluorescence microscopy was performed using a Nikon Eclipse Ti2 microscope equipped with an LED source (CoolLED), a dual-band filter cube (AHF, Excitation 455–489 nm, 557–588 nm; Emission 506–542 nm, 605–660 nm) and a Photometrics Evolve 512 electron-multiplying charge-coupled device camera was used (10x N.A. 0.30).
Here, the cells were counterstained with Hoechst (H1399, Thermo Fischer, 10 μg ml^−1) and incubated for 1 h at 37°C, 5% CO2, washed with PBS and images were acquired using SD confocal microscopy with 488 nm laser and 520/28 BrightLine HC filters for detecting FITC-labelled TAT and the 405 nm laser and 442/42 BrightLine HC filter for acquiring Hoechst. […] The transport of TAT was tracked over 2 h, acquiring time lapse images every 30 s using epi-fluorescence microscopy (see Imaging modalities). […]

[2] = tested on: Caco-2:HT29-MTX E12 coculture tubules; assay: Barrier integrity monitored by co-applied TRITC-dextran (TD) during peptide transport; assay type: cell-based, human; conditions: INS chips with and without TAT
Experimental: Here, the cells were counterstained with Hoechst (H1399, Thermo Fischer, 10 μg ml^−1) and incubated for 1 h at 37°C, 5% CO2, washed with PBS and images were acquired using SD confocal microscopy with 488 nm laser and 520/28 BrightLine HC filters for detecting FITC-labelled TAT and the 405 nm laser and 442/42 BrightLine HC filter for acquiring Hoechst. The cell tubules exposed to TAT/INS (24 µM/50 μM, IS1-AF647-1, Nanocs) were stained with above mentioned cellular dyes and CellMask-green (C37608, Thermo Fisher, 1:500) for 30 min on ice after 3 h of incubation. The transport of TAT was tracked over 2 h, acquiring time lapse images every 30 s using epi-fluorescence microscopy (see Imaging modalities). […] To simultaneously monitor the barrier integrity TD (0.5 mg ml^−1) was co-applied to the chips and measured in parallel to TAT. For the quantification of both TAT, INS and TD transport across the cell barrier, calibration curves were established. […]
Next we used the platform to study the barrier transport kinetics of TAT. We performed whole-chip real-time live cell imaging, to quantify the concentration of TAT transported across the coculture cell layer and reaching the receiving channel (Figure 6B). […] Both the FITC and TRITC channels were recorded for each tubular system every 30 s for a total of 2.5 h. […]

[3] = tested on: Caco-2:HT29-MTX E12 coculture tubules; assay: Image-based real-time quantification of TAT and TAT/INS transport across coculture tubules; conditions: 50 µM INS, whether or not TAT (24 µM) was present, over 3 h, n = 3
Experimental: We performed whole-chip real-time live cell imaging, to quantify the concentration of TAT transported across the coculture cell layer and reaching the receiving channel (Figure 6B). […] Both the FITC and TRITC channels were recorded for each tubular system every 30 s for a total of 2.5 h. […] A calibration experiment where known concentrations of TAT or TD were added to a chip without cells allowed us to convert the measured intensities to actual concentration in μM and mg mL^−1 respectively (Supplementary Figure S5). […]

INS: AlexaFluor647-labeled insulin (IS1-AF647-1, Nanocs)
Intracellular localization of INS ([1]; INS and INS/TAT, 3 h, 100x, indicating endosomal uptake): localized inside the cytosol in punctual patterns
Cellular internalization of INS ([1]; after 3 h, live cell imaging, with and without TAT): internalized into the enterocyte cell layer even without TAT
Barrier integrity [2]: not compromised significantly
INS transport across the cell barrier [3]: no INS transport across the cell barrier
